From patent US10464890B2, “PGAM1 inhibitors and methods related thereto” (Emory University, priority 2011, dated 2019)
Entries after “also recorded” stand apart in the source; their conditions may differ.

Columns and labels:
[1] = system: H1299 cells with stable knockdown of PGAM1; test: 14C-serine synthesis assay; format: cell-based, human; details: methyl-2-PG
Protocol: Serine synthesis flux from ^14C glucose was measured as described previously (Parry, 1957) with modification. Sub-confluent cells seeded on a 6 cm dish were incubated in complete medium spiked with 40 μCi/ml of D-[U-^14C]-glucose overnight. The incubated cells were lysed with hypotonic lysis buffer (20 mM HEPES (pH 7.0), 5 mM KCl, 1 mM MgCl2, 5 mM DTT, and protease inhibitor cocktail), and the cell lysates were spun down by centrifugation to remove cell debris. The supernatant containing 100 μg of total protein was spotted onto Whatman 3MM paper. One-dimensional chromatogram was run in water saturated phenol, and two-dimentional chromatogram was run in 1-butanol:acetic acid:water solution at the ratio of 100:22:50. L-serine (Sigma) was used as a standard. L-serine dissolved in hypotonic lysis buffer was spotted onto another paper, which was run under the same conditions in parallel with the cell lysate sample. Spots of amino acids were developed by ninhydrin reaction. The spot corresponding to serine was identified based on R^f values of L-serine standard, cut out from the paper, and directly subjected to scintillation counting.

[2] = system: human dermal fibroblasts (HDF), human foreskin fibroblasts (HFF), HaCaT keratinocyte cells, melanocyte PIG1 cells; test: Cell proliferation of normal human cells; format: cell-based
Protocol: For leukemia cell proliferation assay, 10×10^4 cells were seeded in non-tissue culture coated 6-well plate and incubated at 37° C. for indicated times. Cell numbers were counted by trypan blue exclusion under a microscope (×40) at indicated times and the percentage of cell proliferation was determined by comparing PGAM1 knockdown cells to pLKO.1 vector expressing cells. […] Cell viability was determined by counting drug-treated cells compared to DMSO-treated control cells with trypan blue exclusion under a microscope (×40) and by using CellTiter96Aqueous One solution proliferation kit (Promega). For adherent cell proliferation assay such as H1299 and MDA-MB231 cells, 5×10^4 cells were seeded in 6-well plate 24 h before the assay starts and were cultured at 37° C. 24 h after seeding, cells were treated with 5 μM Methyl-2PG and incubated at 37° C. for indicated times. Cell proliferation was determined by the increase in cell number indicated times after the treatment starts compared to that at the treatment starts for each cell line (T=0). Cell numbers were counted by trypan blue exclusion under a microscope (×40). […] Cell viability was determined by counting drug-treated cells compared to DMSO-treated control cells with trypan blue exclusion under a microscope (×40). […] Cell viability was determined by using CellTiter96Aqueous One solution proliferation kit (Promega).

H1299 cells xenograft = test: H1299 xenograft in nude mice; format: in vivo
[3] = system: peripheral blood mononucleocytes and bone marrow CD34+ cells from healthy donors; test: Cells from healthy human donors; format: cell-based
Excerpt: Approval of use of human specimens was given by the Institutional Review Board of Emory University School of Medicine. All clinical samples were obtained with informed consent with approval by the Emory University Institutional Review Board. Clinical information for the patients was obtained from the pathological files at Emory University Hospital under the guidelines and with approval from the Institutional Review Board of Emory University School of Medicine and according to the Health Insurance Portability and Accountability Act. Only samples from patients that were not previously treated with chemotherapy or radiation therapy were used. Mononuclear cells (MNCs) were isolated from peripheral blood and bone marrow samples from human leukemia patients or peripheral blood samples from healthy donors using lymphocyte separation medium (Cellgro).
Only samples from patients that were not previously treated with chemotherapy or radiation therapy were used. Mononuclear cells (MNCs) were isolated from peripheral blood and bone marrow samples from human leukemia patients or peripheral blood samples from healthy donors using lymphocyte separation medium (Cellgro).

[4] = 100 mg/kg/day i.p. for 21 days from 6 days post-injection, vs vehicle

Compound: COC(=O)[C@@H](CO)OP(=O)(O)O [methyl-2-PG, methyl ester of D(+)-2-phosphoglyceric acid, reference compound]
- serine biosynthesis [1]: rescues the phenotype

Compound: O=C1c2ccccc2C(=O)c2c1cc(S(=O)(=O)Nc1ccc(C(F)(F)F)cc1)c(O)c2O [PGMI-004A, N-(4-trifluoromethyl)-penyl-3,4-dihydroxy-9,10-dioxo-2-anthracenesulfonamide]
- cell proliferation / non-specific toxicity in normal cells [2]: does not affect cell proliferation; also recorded: minimal non-specific toxicity
- tumor growth (H1299 cells xenograft; [4]): significantly decreased
- tumor size (H1299 cells xenograft; [4]): significantly decreased
- PGAM1 enzyme activity in resected tumors (H1299 cells xenograft; xenograft nude mice treated with PGMI-004A): effectively inhibits PGAM1 enzyme activity
- cell viability of CD34+ cells isolated from bone marrow samples ([3]; four healthy donors): did not affect cell viability
- cell viability of mononucleocytes in peripheral blood samples ([3]; two healthy human donors, 120 h): no toxicity; also recorded: did not affect cell viability
